Assay results taken from patent US9636317B2, “Compositions and methods of use of phorbol esters” (priority 2007, dated 2017).
Where “and” joins values, the source holds several entries; their conditions need not be identical. Equal values may be shown once. Entries after “also recorded” stand apart in the source; their conditions may differ.

What was measured:
symptomatic HIV patients = experiment: First clinical study of HIV+ patients: symptoms and side effects (incl. case studies); format: in vivo, human
Experimental: (§1) Twelve symptomatic patients (five males and seven females) between the ages of 35 to 52 all of whom were infected with HIV in 1995 through blood transfusion and were refractory to standard treatments for HIV were treated with TPA. Each patient was administered a weight adjusted dosage of TPA (75 μg/sq m) in 200 ml of sterile saline by i.v. over one hour. This dose was administered once daily for the first three days of treatment. Each patient was then given this dose every other day for days 4 to 18 followed by a six month rest period prior to a second course of treatment according to the same protocol.
(§2) Results of treatment of initially symptomatic AIDS patients treated with TPA according to the protocols of Example III, IV, and V. Patients who participated in multiple studies are in some cases identified by more than one patient number. All patient identification numbers correspond to the patient numbers in Tables 1-7.

terminal breast cancer = experiment: Treatment of breast cancer (patient case); format: in vivo, human; details: 35 injections, 0.18 to 0.26 mg TPA three to four times a week
Source text: Patient six was diagnosed with terminal breast cancer. They were unresponsive to either radiation or chemotherapy and the cancer had metastasized into the bone leaving their wheelchair bound.

HIV patients = experiment: Second clinical study of HIV+ patients: symptoms and side effects (incl. case studies); format: in vivo, human
Experimental: (§3) Nine of the patients in Example III were given a second treatment of TPA. Of these nine, seven were asymptomatic at the beginning of the second trial. A tenth patient (patient #2a) who was symptomatic and had not previously been treated with TPA was added to the study. Each patient was administered a weight adjusted dosage of TPA (75 μg/sq m) in 200 ml of sterile saline intravenously over one hour. This dosage was given to each patient once a day for ten consecutive days followed by a rest period of ten days for three cycles and a total of 30 doses of TPA. Patients 5a, 6a, and 8a stopped taking anti-AIDS drugs one month prior to beginning the TPA treatment and beginning again one month after the third cycle. Patients 1-4-a, 7a, and 9a-10a continued taking anti-AIDS drugs throughout the treatment.
as §2

CD3, CD4, CD8 = experiment: Second clinical study of HIV+ patients: CD3, CD4, CD8; format: in vivo, human; set-up: CD4 / CD8 / CD3: unit not given here; details: for CD4 / CD3 / CD8: one value per patient
Experimental: as §3
Blood samples were taken three days prior to starting treatment, after completing the first 10 day cycle of TPA infusion and again after the last TPA infusion and CD3, CD4, CD8, WBC, RBC, HGB and platelets were measured.

[1] = tested on: HIV-cytopathic effects on MT-4 cells; details: cited from earlier work
lymphoma = experiment: Treatment of lymphoma (patient case); format: in vivo, human
Source text: Patient five was diagnosed with a re-occurrence of lymphoma and a mass of 3.5 cm in diameter. […] As of 2011, they have been in remission for three years.

[2] = Reduction of periorbital hyperpigmentation; format: in vivo, human; details: 6 women and 1 man
Experimental: 6 women and 1 man with excessive periorbital hyperpigmentation were treated with TPA.

[3] = tested on: CD3, CD4 and CD8 in peripheral blood; experiment: First clinical study of HIV+ patients: CD3, CD4, CD8 levels by flow cytometry; format: in vivo, human; set-up: CD4 / CD8 / CD3: unit not given here; details: for CD3 / CD4 / CD8: one value per patient
Experimental: as §1
[…] Levels of CD3, CD4 and CD8 in peripheral blood were measured using monoclonal antibodies (Becton Dickson Scientific Co., Franklin Lakes, N.J.) and a flow cytometer (B.D. Bioscience, San Diego, Calif.).

HIV = experiment: First clinical study of HIV+ patients: blood HIV count; format: in vivo
Experimental: as §1

[4] = Treatment of myasthenia gravis (patient case); format: in vivo, human; details: 35 injections of TPA, concurrent dexamethasone
Experimental: Patient eleven, suffered from myasthenia gravis for more than 40 years. They were taking dexamethasone and concurrently and was injected with 1 ampoule containing 0.19 mg of TPA (0.125 mg/m^2) every other day for four weeks, then 0.24 mg of TPA (1.25×0.125 mg/m^2) every other day for 2 weeks, and 0.26 mg of TPA (1.5×0.125 mg/m^2) every other day for an additional 3 weeks for a total of 35 injections of TPA. They no longer need the dexamethasone and is now asymptomatic.

[5] = protocol of Example III (first or repeat course)
[6] = protocol of Example III (first or repeat course), individual patients
[7] = twelve symptomatic HIV patients
[8] = protocol of Example IV, individual patients
[9] = After first 10-day TPA infusion cycle
[10] = After third 10-day TPA infusion cycle
[11] = Four days after TPA, 75 μg/sq m i.v.
[12] = 15th day during TPA (patient 07)
[13] = 4 days after initial TPA, one value per patient
[14] = 15 days after initial TPA, one value per patient
[15] = 25 days after initial TPA, one value per patient

## CCCCCCCCCCCCCC(=O)O[C@@H]1[C@@H](C)[C@@]2(O)[C@@H](C=C(CO)C[C@]3(O)C(=O)C(C)=C[C@@H]23)[C@@H]2C(C)(C)[C@]12OC(C)=O [TPA, 12-O-tetradecanoylphorbol-13-acetate]
Symptomatic HIV patients; first treatment with TPA, individual patients
  duration of shortness of breath: 15 min
Symptomatic HIV patients; patient #10, rose from 30,000
  platelet count after TPA treatment: 110,000 per microliter
Symptomatic HIV patients; protocol of Example III
  other side effects during TPA treatment (individual patient): did not experience an increase in body temperature or any other side effect; also recorded: mild dizziness and headache; also recorded: serious skin irritation; also recorded: skin irritation due to a leaking needle
Symptomatic HIV patients; [5]
  symptom free period after TPA therapy (individual patient): five months; also recorded: one year
  symptoms after treatment with TPA (individual patient): gradual improvement in symptoms; also recorded: their oral lesions, skin thrush and fever disappeared; also recorded: marked improvement in their symptoms; also recorded: The lymph node returned to normal size; also recorded: no improvement in symptoms occurred; also recorded: their symptoms remained unchanged; also recorded: the frequency of their colds decreased; also recorded: their diarrhea was completely gone; also recorded: their dizziness, headache and diarrhea gradually lessened; also recorded: the dizziness, headache, fever and skin thrush were improving and gradually faded away; also recorded: their symptoms disappeared completely; also recorded: all their symptoms disappeared
Symptomatic HIV patients; [6]
  duration of the increase in body temperature: 1-2 hours and four and 4 hours
  increase in body temperature during TPA treatment: 38-39 °C and 38 °C and 38.5 °C
Symptomatic HIV patients; [7]
  additional patients with a decrease in symptoms: Three additional patients had a decrease in symptoms
  patients who became symptom free: Eight patients became symptom free
Symptomatic HIV patients; twelve symptomatic HIV patients, 75 μg/sq m i.v.
  patients with significant improvement following treatment: eleven of the patients showed significant improvement
Terminal breast cancer
  outcome, terminal breast cancer metastasized into the bone: in remission and able to walk normally
HIV patients; after three cycles of TPA
  AIDS symptoms in the symptomatic patients (#9a, #2a): experienced a disappearance of AIDS symptoms
HIV patients; began the study without AIDS symptoms
  AIDS symptoms in the other eight patients: symptom free at the end of the study
HIV patients; protocol of Example IV
  adverse effects during TPA treatment (individual patient): no adverse effects; also recorded: no side effects
  symptoms after treatment with TPA (individual patient): continues to have no symptoms of AIDS; also recorded: the fever and diarrhea were no longer a problem; also recorded: does not have any symptoms of AIDS; also recorded: has not had any symptoms of AIDS; also recorded: Her mental and physical condition has improved considerably
HIV patients; [8]
  duration of the increase in body temperature: two
  increase in body temperature during TPA treatment: 38.5 degrees centigrade
CD3, CD4, CD8; After first 10-day TPA infusion cycle, 75 μg/sq m i.v. daily
  CD4: 76 and 460 and 189 and 91 and 285 and 729 and 519 and 136 and 74 and 7
CD3, CD4, CD8; [9]
  CD3: 476 and 1200 and 823 and 1598 and 758 and 3148 and 1143 and 712 and 333 and 1323
  CD8: 335 and 729 and 584 and 1507 and 429 and >2000 and 547 and 574 and 261 and 907
CD3, CD4, CD8; [10]
  CD3: 625 and 2033 and 1193 and 1257 and 938 and 3347 and 1295 and 1317 and 308 and 2037
  CD4: 137 and 1002 and 205 and 94 and 276 and 786 and 495 and 100 and 63 and 19
  CD8: 543 and 980 and 916 and 1127 and 466 and >2000 and 733 and 1221 and 208 and 1129
CD3, CD4, CD8; after the first and third infusion with TPA
  CD3 (summary of Table 3): increase in CD3 in all patients
[1]
  HIV-cytopathic effects: inhibit the HIV-cytopathic effects on MT-4 cells
lymphoma; 15 injections of 0.19 mg TPA every other day for 30 days
  lymphoma mass (3.5 cm in diameter): the mass disappeared
lymphoma; as of 2011
  duration of remission: three years
[2]
  inflammation and hyperpigmentation in the periorbital area: reduced the inflammation and hyperpigmentation in the periorbital area
[3]; After TPA (patients 09-12)
  CD3: 2920 and 1077 and 874 and 362
  CD4: 663 and 445 and 131 and 78
  CD8: <2000 and 591 and 724 and 268
[3]; Forty two days after TPA
  CD3: 799 and 424 and 581 and 1643 and 537 and 146 and 858 and 203
  CD4: 54 and 33 and 44 and 191 and 49 and 1 and 241 and 2
  CD8: 700 and 374 and 493 and 1429 and 429 and 139 and 527 and 111
[3]; [11]
  CD3: 427 and 941 and 1282 and 808 and 598 and 739 and 299 and 2616
  CD4: 36 and 123 and 119 and 179 and 7 and 318 and 3 and 105
  CD8: 366 and 770 and 1330 and 570 (2×) and 355 and 180 and <2000
[3]; twelve patients
  change in CD3, CD4, or CD8 levels (summary of Table 1): no consistent change or correlation was observed
HIV; [12]
  BLOOD HIV COUNT LOG VALUE: 4.988
  BLOOD HIV COUNT RESULTS: 9.74 × 10^4 copies/ml
HIV; [13]
  BLOOD HIV COUNT LOG VALUE: 6.899 and 4.910 and 7.243 and 5.974 and 4.160 and 5.179 and 5.959 and 6.151
  BLOOD HIV COUNT RESULTS: 7.92 × 10^6 copies/ml and 8.13 × 10^4 copies/ml and 1.75 × 10^7 copies/ml and 9.42 × 10^5 copies/ml and 1.44 × 10^4 copies/ml and 1.51 × 10^5 copies/ml and 9.09 × 10^5 copies/ml and 1.41 × 10^4 copies/ml
HIV; 7 days after TPA (patient 06)
  BLOOD HIV COUNT LOG VALUE: 6.357
  BLOOD HIV COUNT RESULTS: 2.28 × 10^6 copies/ml
HIV; [14]
  BLOOD HIV COUNT LOG VALUE: 4.306 and 6.801 and 3.786 and 6.614 and 7.369 and 5.274 and 6.737
  BLOOD HIV COUNT RESULTS: 2.02 × 10^4 copies/ml and 6.33 × 10^6 copies/ml and 6.11 × 10^3 copies/ml and 1.11 × 10^6 copies/ml and 2.34 × 10^7 copies/ml and 1.88 × 10^5 copies/ml and 5.46 × 10^6 copies/ml
HIV; [15]
  BLOOD HIV COUNT LOG VALUE: 4.416 and 6.941 and 5.934 and 4.084 and 6.745 and 3.724 and 6.890
  BLOOD HIV COUNT RESULTS: 2.60 × 10^4 copies/ml and 8.72 × 10^6 copies/ml and 8.59 × 10^5 copies/ml and 1.21 × 10^4 copies/ml and 5.56 × 10^6 copies/ml and 5.30 × 10^3 copies/ml and 7.77 × 10^6 copies/ml and undetectable
HIV; 25 days after initial TPA, sample taken from the second cycle treatment (patients 10-12)
  BLOOD HIV COUNT LOG VALUE: 4.446 and 5.096 and 3.798
HIV; twelve patients
  change of viral load (summary of Table 2): five patients having an increase in HIV and no change or a reduction in seven others
[4]
  myasthenia gravis symptoms: asymptomatic
